Where two headings read alike, the source gives them in different places.
Molecular target: T1, full-length SARM1 (FL-SARM1) (Homo sapiens, UniProt Q6SZW1)
T1 sequence (Q6SZW1 28-724): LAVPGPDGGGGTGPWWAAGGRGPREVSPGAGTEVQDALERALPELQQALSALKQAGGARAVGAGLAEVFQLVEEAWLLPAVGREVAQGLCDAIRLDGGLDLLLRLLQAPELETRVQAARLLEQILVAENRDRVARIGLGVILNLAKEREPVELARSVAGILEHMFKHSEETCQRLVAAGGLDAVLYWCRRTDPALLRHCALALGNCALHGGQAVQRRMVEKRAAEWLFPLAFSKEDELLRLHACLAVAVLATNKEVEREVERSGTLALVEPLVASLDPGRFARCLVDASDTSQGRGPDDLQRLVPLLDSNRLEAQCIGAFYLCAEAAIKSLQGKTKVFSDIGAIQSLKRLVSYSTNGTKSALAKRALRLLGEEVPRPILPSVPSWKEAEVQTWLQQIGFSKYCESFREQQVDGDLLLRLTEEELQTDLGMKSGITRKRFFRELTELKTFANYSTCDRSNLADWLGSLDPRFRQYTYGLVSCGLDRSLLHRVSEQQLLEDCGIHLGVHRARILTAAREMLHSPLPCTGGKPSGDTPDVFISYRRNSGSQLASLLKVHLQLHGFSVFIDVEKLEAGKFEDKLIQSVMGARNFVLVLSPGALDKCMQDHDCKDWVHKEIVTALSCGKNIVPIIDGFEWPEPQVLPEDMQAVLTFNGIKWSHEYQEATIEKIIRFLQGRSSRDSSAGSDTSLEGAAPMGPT
Experiment: FL-SARM1 cellular lysate assay (NAD/NADH-Glo detection of remaining NAD+, NMN-activated)

[1] = Activity (μM) (IC50), 11 point curve
[2] = read-out: Activity (IC50 class), 11 point curve
[3] = Activity (IC50 class), 11 point curve

SMILES | IC50 [1] [µM] | IC50 [2] [µM] | IC50 [3] [µM]
CO[C@H]1C[C@@H]2C[C@H](C1)N2C(=O)Nc1ccc(C)c(-c2ccccn2)c1 [Example 45, trans-3-Methoxy-N-(4-methyl-3-(pyridin-2-yl)phenyl)-6-azabicyclo[3.1.1]heptane-6-carboxamide] | 0.5 | 0.0001 to 1 | –
O=C(Nc1ccc(Cl)c(-c2ccc(F)cn2)c1)N1C2CCCC1C2 [Example 46, N-(4-chloro-3-(5-fluoropyridin-2-yl)phenyl)-6-azabicyclo[3.1.1]heptane-6-carboxamide] | 0.2 | 0.0001 to 1 | –
Cc1ccc(NC(=O)N2C3C[C@@H](C)C[C@@H]2C3)cc1-c1ncc(F)cn1 [Example 50, trans-N-(3-(5-fluoropyrimidin-2-yl)-4-methylphenyl)-3-methyl-6-azabicyclo[3.1.1]heptane-6-carboxamide] | 0.02 | 0.0001 to 1 | –
Cc1ccc(NC(=O)N2C3C[C@H](C)C[C@@H]2C3)cc1-c1ncc(F)cn1 [Example 51, cis-N-(3-(5-fluoropyrimidin-2-yl)-4-methylphenyl)-3-methyl-6-azabicyclo[3.1.1]heptane-6-carboxamide] | 0.01 | 0.0001 to 1 | –
Cc1ccc(NC(=O)N2C3CCCC2C3)cc1-c1ncccn1 [Example 52, N-(4-methyl-3-(pyrimidin-2-yl)phenyl)-6-azabicyclo[3.1.1]heptane-6-carboxamide] | 0.5 | 0.0001 to 1 | –
Cc1ccc(NC(=O)N2C3CCCC2C3)cc1-c1cnccn1 [Example 53, N-(4-methyl-3-(pyrazin-2-yl)phenyl)-6-azabicyclo[3.1.1]heptane-6-carboxamide] | 0.8 | 0.0001 to 1 | –
Cc1ccc(NC(=O)N2C3CCCC2C3)cc1-c1cccnn1 [Example 54, N-(4-methyl-3-(pyridazin-3-yl)phenyl)-6-azabicyclo[3.1.1]heptane-6-carboxamide] | 0.5 | 0.0001 to 1 | –
Cc1ccc(NC(=O)N2C3CCCC2C3)cc1-c1ncc(F)cn1 [Example 55, N-(3-(5-fluoropyrimidin-2-yl)-4-methylphenyl)-6-azabicyclo[3.1.1]heptane-6-carboxamide] | 0.2 | 0.0001 to 1 | –
O=C(Nc1ccc(C(F)(F)F)c(-c2ccc(F)cn2)c1)N1C2CCCC1C2 [Example 56, N-(3-(5-fluoropyridin-2-yl)-4-(trifluoromethyl)phenyl)-6-azabicyclo[3.1.1]heptane-6-carboxamide] | 2.2 | – | 1 to 10
O=C(Nc1ccc(C(F)(F)F)c(-c2ccc(F)cn2)c1)N1C2CCC1c1ccccc12 [Example 57, N-(3-(5-fluoropyridin-2-yl)-4-(trifluoromethyl)phenyl)-1,2,3,4-tetrahydro-1,4-epiminonaphthalene-9-carboxamide] | 3.7 | – | 1 to 10
COc1cccnc1-c1cc(NC(=O)N2C3CCCC2C3)ccc1C [Example 58, N-(3-(3-methoxypyridin-2-yl)-4-methylphenyl)-6-azabicyclo[3.1.1]heptane-6-carboxamide] | 12 | – | > 10
O=C(Nc1ccc(OC(F)(F)F)c(-c2ccccn2)c1)N1C2CCCC1C2 [Example 59, N-(3-(pyridin-2-yl)-4-(trifluoromethoxy)phenyl)-6-azabicyclo[3.1.1]heptane-6-carboxamide] | 0.6 | 0.0001 to 1 | –
COc1ccc(-c2cc(NC(=O)N3C4CCCC3C4)ccc2C)nn1 [Example 60, N-(3-(6-methoxypyridazin-3-yl)-4-methyl-phenyl)-6-azabicyclo[3.1.1]heptane-6-carboxamide] | 1.1 | – | 1 to 10
Cc1ccc(NC(=O)N2C3CCCC2C3)cc1-c1ccc(C(F)(F)F)nn1 [Example 61, N-(4-methyl-3-(6-(trifluoromethyl)pyridazine-3-yl)phenyl)-6-azabicyclo[3.1.1]heptane-6-carboxamide] | 11 | – | > 10
Cc1ccc(NC(=O)N2C3C[C@@H](C)C[C@H]2C3)cc1-c1cccnn1 [Example 62, cis-3-methyl-N-(4-methyl-3-pyridazin-3-yl-phenyl)-6-azabicyclo[3.1.1]heptane-6-carboxamide] | 0.02 | 0.0001 to 1 | –
Cc1ccc(NC(=O)N2C3CCCC2C3)cc1-c1cc(C#N)cnn1 [Example 63, N-(3-(5-cyanopyridazin-3-yl)-4-methylphenyl)-6-azabicyclo[3.1.1]heptane-6-carboxamide] | 0.7 | 0.0001 to 1 | –
C[C@@H]1CC2C[C@H](C1)N2C(=O)Nc1ccc(Cl)c(-c2cccnn2)c1 [Example 64, cis-N-(4-chloro-3-pyridazin-3-ylphenyl)-3-methyl-6-azabicyclo[3.1.1]heptane-6-carboxamide] | 0.1 | 0.0001 to 1 | –
COc1ccnc(-c2cc(NC(=O)N3C4CCCC3C4)ccc2C)n1 [Example 65, N-(3-(4-methoxypyrmidin-2-yl)-4-methyl-phenyl)-6-azabicyclo[3.1.1]heptane-6-carboxamide] | 2.3 | – | 1 to 10
Cc1ccc(NC(=O)N2C3CCCC2C3)cc1-c1cc(C(F)(F)F)cnn1 [Example 66, N-(4-methyl-3-(5-(trifluoromethyl)pyridazine-3-yl)phenyl)-6-azabicyclo[3.1.1]heptane-6-carboxamide] | 0.5 | 0.0001 to 1 | –
Cc1ccc(NC(=O)N2C3CCCC2C3)cc1-c1nccc(C#N)n1 [Example 67, N-(3-(4-cyanopyrimidin-2-yl)-4-methyl-phenyl)-6-azabicyclo[3.1.1]heptane-6-carboxamide] | 0.6 | 0.0001 to 1 | –
Cc1ccc(NC(=O)N2C3CCCC2C3)cc1-c1nccc(C(F)(F)F)n1 [Example 68, N-(4-methyl-3-(4-(trifluoromethyl)pyrimidin-2-yl)phenyl)-6-azabicyclo[3.1.1]heptane-6-carboxamide] | 4.7 | – | 1 to 10
Cc1c(F)cc(NC(=O)N2C3CCCC2C3)cc1-c1ccccn1 [Example 69, N-(3-fluoro-4-methyl-5-(pyridin-2-yl)phenyl)-6-azabicyclo[3.1.1]heptane-6-carboxamide] | 0.08 | 0.0001 to 1 | –
Cc1cc(NC(=O)N2C3CCCC2C3)cc(-c2ccccn2)c1C [Example 71, N-(3,4-dimethyl-5-(pyridin-2-yl)phenyl)-6-azabicyclo[3.1.1]heptane-6-carboxamide] | 10.9 | – | > 10
Cc1ccc(NC(=O)N2C3CC2CN(c2ncccn2)C3)cc1-c1ccccn1 [Example 72, N-(4-methyl-3-(pyridin-2-yl)phenyl)-3-(pyrimidin-2-yl)-3,6-diazabicyclo[3.1.1]heptane-6-carboxamide] | 1.2 | – | 1 to 10
Cc1ccc(NC(=O)C2C3CCC2CC3)cc1-c1ccccn1 (stereo not drawn) [Example 73, N-(4-methyl-3-(pyridin-2-yl)phenyl)bicyclo[2.2.1]heptane-7-carboxamide] | 0.09 | 0.0001 to 1 | –
Cc1ccc(NC(=O)N2C3C[C@H](C#N)C[C@@H]2C3)cc1-c1ccccn1 [Example 74, cis-3-cyano-N-(4-methyl-3-(pyridin-2-yl)phenyl)-6-azabicyclo[3.1.1]heptane-6-carboxamide] | 0.3 | 0.0001 to 1 | –
Cc1ccc(NC(=O)N2C3C[C@@H](C#N)C[C@@H]2C3)cc1-c1ccccn1 [Example 75, trans-3-cyano-N-(4-methyl-3-(pyridin-2-yl)phenyl)-6-azabicyclo[3.1.1]heptane-6-carboxamide] | 0.4 | 0.0001 to 1 | –

Source: patent publication US20250171462A1 (NICO Therapeutics, Inc., priority 2022, published 2025)
